In patent US9067898B1, “Isothiazole derivatives as GPR120 agonists for the treatment of type II diabetes” (Janssen Pharmaceutica NV, priority 2014, dated 2015) one finds EC50 data, which are given here for 20 compounds.

A word on the EC50: it is the concentration giving half of the maximal effect.

What all share (format): cell-based
The target in assay [1] is T1, Human GPR120 short form (Homo sapiens, UniProt Q5NUL3).
T1 construct: expressed in transfected cells
T1 sequence (Q5NUL3 1-361): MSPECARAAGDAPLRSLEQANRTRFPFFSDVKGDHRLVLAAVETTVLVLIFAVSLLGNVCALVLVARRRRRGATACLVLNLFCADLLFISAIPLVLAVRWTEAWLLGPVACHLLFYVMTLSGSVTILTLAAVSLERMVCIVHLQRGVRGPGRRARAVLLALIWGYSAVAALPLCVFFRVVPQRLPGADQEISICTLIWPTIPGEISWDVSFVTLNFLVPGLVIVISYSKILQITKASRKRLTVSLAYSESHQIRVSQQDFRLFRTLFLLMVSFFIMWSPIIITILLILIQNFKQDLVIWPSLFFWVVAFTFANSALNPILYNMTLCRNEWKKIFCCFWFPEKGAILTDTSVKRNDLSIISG
Put plainly: Human GPR120 calcium flux assay (FLIPR), Procedure Calcium B. The note with it: HEK-293 cells expressing human GPR120 short form, 4200 cells/well; read-out: GPR120 Ca2+ Assay B EC50. From the text: This in vitro assay serves to assess test compound agonist activity against the short splice variant (SVS with Accession number NM_001195755.1 confirmed by sequencing data) of the GPR120 receptor. The Human Short splice variant #2 (NM_001195755.1) is missing an in-frame coding exon compared to variant 1 (the Human Long splice variant NM_181745.3), resulting in a shorter isoform (GPR120-S) lacking a 16 aa protein segment compared to isoform GPR120-L. The assay platform utilizes HEK-293 cells stably transfected to express the Human GPR120 short form. These cells are first loaded with the Ca^+2 sensitive dye, Fluo-4 NW. Upon stimulation, intracellular released Ca^+2 can bind to the dye and alter its fluorescence intensity. This increase in fluorescence signal, and thus the flux in intracellular [Ca^2+], is detected and quantitated by fluorescence imaging using a FLIPR reader. The effect of the agonist is measured as a function of concentration and used to calculate an EC50 based upon a response curve.
In this procedure 4200 cells/well were employed.
A Human GPR120 clone (Genbank accession number NM_001195755.1) was placed into the pcDNA3.1 mammalian expression vector carrying the neomycin resistance gene. A stable mammalian cell was generated by placing the above clone into a HEK293 background. Clonal cells responding to long chain fatty acids had expression levels of GPR120 confirmed by RT-qPCR. Human HEK-GPR120 cells were cultured in Dulbecco's Modified Eagle's Medium (DMEM)/F12 medium supplemented with 10% fetal bovine serum (FBS), 1% L-Glutamine and 1% penicillin/streptomycin and 0.5 mg/ml G-418. Cells were split 2 times a week to keep the cells in the log-phase growth.
In preparation for the assay, HEK cells stably transfected with Human GPR120 (2.5K cells per well in 25 uL growth medium) were seeded into 384-well plates and then incubated overnight (37° C., 5% CO2). The next day, the media was changed to 20 μL assay buffer and the cell starved for 1 h at 37° C. The dye loading solution (2× dye) was prepared using 10 mL assay buffer, 100 μL of 250 mM probenecid, 1 bottle of Component A, and 20 μl of dye in DMSO. Twenty μL of the 2× dye loading buffer was then added to each well. The plates were incubated at 37° C. for 30 min, then at room temperature for an additional 15 minutes, before performing the assay on FLIPR. Test compounds were prepared in assay buffer (2 uL of cpd+198 uL assay buffer, final DMSO in assay plate is 0.2%) at the desired concentration, more particularly at 100, 50, 25, 12.5, 6.25, 3.125, 1.562, 0.781, 0.391, 0.195, 0.098, 0.049, 0.024 and 0.012 μM.
The assay was performed on a FLIPR plate reader using the following parameters. Baseline was read for 10 seconds at 1 sec intervals. The program was set to transfer 10 μL of ligand from compound plate to cell plate after baseline reading. Aspiration was executed at: 10 μL/sec speed, 4.6 μL height; Dispensing was executed at: 30 μL/sec speed, 45 μL height. After compound addition, each well was read for 300 sec, with measurements collected at 1 sec intervals.
The kinetic data from the FLIPR was based upon a 5 minute window for data collection. The fluorescence of each sample well was used for individual calculations of a normalized RFU value, which was defined as maximum response minus the minimum response. The normalized fluorescence reading (RFU) was calculated as follows: RFU=Fmax−Fmin The data were fitted to a sigmoidal dose-response curve with a variable Hill slope (<2) using nonlinear regression with GraphPad Prism 5.0 to calculate the EC50 values. The Fitting Equation was: Y=Bottom+(Top−Bottom)/(1+10^((Log EC50−X)*HillSlope)), where X is the log of the concentration and Y is the response.
(In general: Calcium assays in cells follow changes in intracellular calcium, usually with a dye or a luminescent sensor.)

In assay [2] the target is T2, short form of the GPR120 receptor (GPR120S) (Homo sapiens, UniProt Q5NUL3).
T2 construct: host or cells: PathHunter CHO-K1 GPR120S β-Arrestin Cell Line
T2 sequence (P32121 whole entry partner, one chain of several): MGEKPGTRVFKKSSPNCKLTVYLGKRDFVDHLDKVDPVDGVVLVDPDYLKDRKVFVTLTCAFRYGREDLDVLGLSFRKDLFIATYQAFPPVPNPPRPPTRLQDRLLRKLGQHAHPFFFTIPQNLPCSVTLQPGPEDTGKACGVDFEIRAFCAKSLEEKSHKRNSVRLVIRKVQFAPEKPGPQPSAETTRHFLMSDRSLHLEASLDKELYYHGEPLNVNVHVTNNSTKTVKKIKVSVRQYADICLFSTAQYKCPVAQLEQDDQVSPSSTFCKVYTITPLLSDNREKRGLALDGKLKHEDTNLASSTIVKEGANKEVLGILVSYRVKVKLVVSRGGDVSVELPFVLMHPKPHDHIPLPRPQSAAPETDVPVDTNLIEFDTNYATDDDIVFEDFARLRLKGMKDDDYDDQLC
Put plainly: Human GPR120 DiscoveRx PathHunter Beta-Arrestin assay, Procedure β-arrestin B. As to conditions: PathHunter CHO-K1 GPR120S β-Arrestin cell line, 5000 cells/well, read-out: hGPR120 β-arrestin B EC50. In a few lines: (§1)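 PathHunter CHO-K1 β-arrestin cells expressed long-form GPR120 (Procedure A, 3000 cells/well) or short-form GPR120 (Procedure B, 5000 cells/well). Compounds were serially diluted from 25 µM and incubated 90 min at 37 °C in HBSS/20 mM HEPES/0.1% BSA, pH 7.4. Luminescence was read after 60 min detection at RT; EC50 comes from % activity versus positive control, Hill slope fixed at 1.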

Assay [3] deals with T3, long form of human GPR120 (Homo sapiens, UniProt Q5NUL3).
T3 construct: host or cells: PathHunter CHO-K1 GPR120 β-Arrestin Cell Line
T3 sequence (Q5NUL3 1-377 isoform Q5NUL3-1): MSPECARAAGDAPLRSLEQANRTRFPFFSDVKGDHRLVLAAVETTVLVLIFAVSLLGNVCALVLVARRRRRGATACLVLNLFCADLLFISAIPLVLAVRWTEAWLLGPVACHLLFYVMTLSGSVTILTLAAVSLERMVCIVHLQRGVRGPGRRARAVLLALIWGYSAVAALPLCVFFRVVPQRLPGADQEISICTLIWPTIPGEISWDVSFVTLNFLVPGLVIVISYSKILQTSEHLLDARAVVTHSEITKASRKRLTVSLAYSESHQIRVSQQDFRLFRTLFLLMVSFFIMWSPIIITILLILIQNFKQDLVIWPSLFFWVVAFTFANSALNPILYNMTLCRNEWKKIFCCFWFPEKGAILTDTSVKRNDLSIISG
T3 sequence (P32121 whole entry partner): as the sequence (P32121 whole entry partner, one chain of several) above
Put plainly: Human GPR120 DiscoveRx PathHunter Beta-Arrestin assay, Procedure β-arrestin A. The note with it: PathHunter CHO-K1 GPR120 β-Arrestin cell line, 3000 cells per well, read-out: hGPR120 β-arrestin A EC50. Summed up:
as §1

For assay [4], the target named is T1, Human GPR120 short form. Put plainly: Human GPR120 calcium flux assay (FLIPR), Procedure Calcium A. The note with it: HEK-293 cells expressing human GPR120 short form, 2500 cells/well; read-out: GPR120 Ca2+ Assay A EC50. Summed up: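 HEK293 cells stably expressing the short isoform (NM_001195755.1), 2500/well, starved 1 h, then loaded with Fluo-4 NW plus probenecid (30 min 37 °C, 15 min RT). Compound solutions 0.012–100 μM, 0.2% DMSO final; FLIPR read 300 s after addition. EC50 from Fmax−Fmin fitted to variable-slope sigmoid (Hill <2).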

`O=C(O)CCc1cc(F)c(OCc2c(-c3ccns3)nsc2C(F)(F)F)c(F)c1` [Cpd 272, 3-(3,5-Difluoro-4-{[5-(trifluoromethyl)-3,5′-biisothiazol-4-yl]methoxy}phenyl)propanoic acid]: the results for the 50% effective concentration (EC50) (on Human GPR120 short form [1]; in assay [2]) were 573 nM and 750 nM, respectively.

In the case of `Cc1ccc(-c2snc(Cl)c2COc2ccc(CCC(=O)O)cc2)c(C)c1` [Cpd 255, 3-(4-{[3-Chloro-5-(2,4-dimethylphenyl)isothiazol-4-yl]methoxy}phenyl)propanoic acid], the EC50 at Human GPR120 short form [1] amounted to 550 nM. For the compound `Cc1ccc(-c2snc(Cl)c2COc2ccc(CCC(=O)O)c(C(C)F)c2)cc1` (centres unmarked) [Cpd 279, 3-[4-{[3-Chloro-5-(4-methylphenyl)isothiazol-4-yl]methoxy}-2-(1-fluoroethyl)phenyl]propanoic acid], at Human GPR120 short form [1], the EC50 stood at 755 nM. As to `Cc1ccc(-c2snc(Cl)c2COc2ccc(CCC(=O)O)c(C(C)(F)F)c2)cc1` [Cpd 278, 3-[4-{[3-Chloro-5-(4-methylphenyl)isothiazol-4-yl]methoxy}-2-(1,1-difluoroethyl)phenyl]propanoic acid], on Human GPR120 short form [1], the EC50 came out at 601 nM.

For the compound `COc1ncc(-c2nsc(C(F)(F)F)c2COc2ccc(CCC(=O)O)c(C)c2C)s1` [Cpd 268, 3-(4-{[3-(2-Methoxy-1,3-thiazol-5-yl)-5-(trifluoromethyl)isothiazol-4-yl]methoxy}-2,3-dimethylphenyl)propanoic acid], the results for the EC50 (at Human GPR120 short form [1]; in assay [2]) were 473 nM and 445 nM, respectively. In the case of `O=C(O)CCc1ccc(OCc2c(-c3ccc(Cl)cc3)nsc2C(F)(F)F)cc1C(F)F` [Cpd 274, 3-[4-{[3-(4-Chlorophenyl)-5-(trifluoromethyl)isothiazol-4-yl]methoxy}-2-(difluoromethyl)phenyl]propanoic acid], on Human GPR120 short form [1], the EC50 came to 3980 nM. On to `O=C(O)CCc1ccc(OCc2c(Cl)nsc2-c2ccccc2Cl)cc1C(F)(F)F` [Cpd 259, 3-[4-{[3-Chloro-5-(2-chlorophenyl)isothiazol-4-yl]methoxy}-2-(trifluoromethyl)phenyl]propanoic acid], for which the concentration for a half-maximal effect (EC50) on Human GPR120 short form [1] amounted to 261 nM. With `Cc1cc(OCc2c(-c3ccc(Cl)cc3)nsc2C(F)(F)F)ccc1CCC(=O)O` [Cpd 275, 3-(4-{[3-(4-Chlorophenyl)-5-(trifluoromethyl)isothiazol-4-yl]methoxy}-2-methylphenyl)propanoic acid], on Human GPR120 short form [1], the EC50 is 1110 nM. The same measure, in the same setting: the result for `COc1cc(OCc2c(Cl)nsc2-c2ccc(C)cc2F)ccc1CCC(=O)O` [Cpd 258, 3-(4-{[3-Chloro-5-(2-fluoro-4-methylphenyl)isothiazol-4-yl]methoxy}-2-methoxyphenyl)propanoic acid] reads 210 nM. With `OCCCc1cc(F)c(OCc2c(-c3ccc(Cl)cc3F)nsc2C(F)(F)F)c(F)c1` [Cpd 262, 3-(4-{[3-(4-Chloro-2-fluorophenyl)-5-(trifluoromethyl)isothiazol-4-yl]methoxy}-3,5-difluorophenyl)propan-1-ol], the EC50 on Human GPR120 short form [1] was 139 nM; in assay [2] it was 80 nM. `Cc1ccc(-c2snc(Cl)c2COc2ccc(CCC(=O)O)c(C(F)(F)F)c2)c(C)c1` [Cpd 256, 3-[4-{[3-Chloro-5-(2,4-dimethylphenyl)isothiazol-4-yl]methoxy}-2-(trifluoromethyl)phenyl]propanoic acid]: on Human GPR120 short form [1], the EC50 was 986 nM. Regarding `Cc1cc(OCc2c(Cl)nsc2-c2ccccc2C)ccc1CCC(=O)O` [Cpd 257, 3-(4-{[3-Chloro-5-(2-methylphenyl)isothiazol-4-yl]methoxy}-2-methylphenyl)propanoic acid], on Human GPR120 short form [1], the EC50 stood at 1060 nM. Turning to `Cc1ccccc1-c1snc(Cl)c1COc1ccc(CCC(=O)O)cc1` [Cpd 254, 3-(4-{[3-Chloro-5-(2-methylphenyl)isothiazol-4-yl]methoxy}phenyl)propanoic acid], the EC50 at Human GPR120 short form [1] is 401 nM. On to `Cc1ccc(-c2snc(Cl)c2COc2c(F)cc(CCC(=O)O)cc2F)c(F)c1` [Cpd 252, 3-(4-{[3-Chloro-5-(2-fluoro-4-methylphenyl)isothiazol-4-yl]methoxy}-3,5-difluorophenyl)propanoic acid], for which the concentration for a half-maximal effect (EC50) on Human GPR120 short form [1] was found to be 45 nM; in assay [3] it was 191 nM. Take `CCc1ccc(-c2nsc(C(C)C)c2COc2ccc(CCC(=O)O)c(C)c2C)cc1` [Cpd 64, 3-(4-[[3-(4-ethylphenyl)-5-(propan-2-yl)-1,2-thiazol-4-yl]methoxy]-2,3-dimethylphenyl)propanoic acid]: at Human GPR120 short form [1], the EC50 came to 923 nM. The same measure, in the same setting: the result for `Cc1ccccc1-c1snc(Cl)c1COc1ccc(CCC(=O)O)c(C(F)(F)F)c1` [Cpd 253, 3-[4-{[3-Chloro-5-(2-methylphenyl)isothiazol-4-yl]methoxy}-2-(trifluoromethyl)phenyl]propanoic acid] reads 349 nM. The same measure, in the same setting: the result for `CC1CC=C(c2snc(Cl)c2COc2ccc(CCC(=O)O)c(C(F)(F)F)c2)CC1` (centres unmarked) [Cpd 276, 3-[4-{[3-Chloro-5-(4-methylcyclohex-1-en-1-yl)isothiazol-4-yl]methoxy}-2-(trifluoromethyl)phenyl]propanoic acid] reads 886 nM. Consider `COc1ccccc1-c1snc(Cl)c1COc1ccc(CCC(=O)O)c(C(F)(F)F)c1` [Cpd 260, 3-[4-{[3-Chloro-5-(2-methoxyphenyl)isothiazol-4-yl]methoxy}-2-(trifluoromethyl)phenyl]propanoic acid], for which the EC50 at Human GPR120 short form [1] worked out at 3430 nM.

Turning to `CCc1cc(OCc2c(Cl)nsc2-c2ccccc2C)ccc1CCC(=O)O` [Cpd 227, 3-(4-[[3-chloro-5-(2-methylphenyl)-1,2-thiazol-4-yl]methoxy]-2-ethylphenyl)propanoic acid], the results for the EC50 (on Human GPR120 short form [4]; in assay [2]) were 867 nM and 3780 nM, respectively. For “3-(4-((3-(2,4-difluorophenyl)-5-(trifluoromethyl)isothiazol-4-yl)methoxy)-3,5-difluorophenyl)propanoic acid [Cpd 174]”, in that order: 382 nM and 1510 nM.
